Assay results: patent US20060205740A1, “Chemical compounds” (priority 2003, published 2006)

How the values were obtained:
EGFR = biological target: T1, EGFR (Homo sapiens, UniProt P00533); assay: EGFR substrate phosphorylation enzyme assay (HTRF); type: biochemical; conditions: isolated enzyme, 20 μM ATP
T1 construct: made in house; host or cells: baculovirus expression system
Method: Compounds of the present invention were tested for EGFR, ErbB-2, and ErbB4 protein tyrosine kinase Inhibitory activity in substrate phosphorylation assays using enzymes purified from a baculovirus expression system.
(§1) The method measures the ability of the isolated enzyme to catalyse the transfer of the γ-phosphate from ATP onto the tyrosine residue of a biotinylated synthetic peptide (biotin-Ahx-[…]-amide). The extent of tyrosine phosphorylation was measured using an anti-phosphotyrosine antibody, and quantified by homogenous time-resolved fluorescence (HTRF).
(§2) The enzymes were first diluted from their concentrated stock solutions into buffer containing 100 mM MOPS (pH7.5); 0.01% Tween-20; 0.1 mg/mL bovine serum albumin (BSA); and 80 nM EGFR, 100 nM ErbB2, or 100 nM ErbB4. The enzymes were incubated in this buffer for 30 minutes at room temperature before addition to the assay plates. Reactions were performed in black 384-well polystyrene flat-bottom plates in a final volume of 20 μL. Reaction mixtures contained 100 mM MOPS (pH 7.5), 2 mM MnCl2, 20 μM ATP, 0.01% Tween-20, 0.1 mg/mL (BSA), 0.8 μM peptide substrate, and 1 mM dithiothreitol. Reactions were initiated by adding enzyme. 0.4 nM EGRF, 5 nM ErbB2, and 0.5 nM ErbB4 were the final enzyme concentrations.
Reactions were allowed to proceed for 90 minutes and were then terminated by the addition of 20 μL 100 mM EDTA to each well. 40 μL/well of HTRF mix were then added to the assay plates for the detection of phosphorylated substrate.
Compounds under analysis were dissolved in Me2SO to 1.0 mM and serially diluted 1 to 3 with Me2SO through twelve dilutions. 1 μL of each concentration was transferred to the corresponding well of an assay plate.
Data were fitted with a curve described by: y=((Vmax*x)/(K+x))+Y2 where Vmax is the upper asymptote, Y2 is the Y intercept, and K is the IC50.

ErbB2 = biological target: T2, ErbB2 (Homo sapiens, UniProt P04626); assay: ErbB2 substrate phosphorylation enzyme assay (HTRF); type: biochemical; conditions: isolated enzyme, 20 μM ATP
T2 construct: made in house; host or cells: baculovirus expression system
T2 sequence (P04626 676-1255 limits assumed): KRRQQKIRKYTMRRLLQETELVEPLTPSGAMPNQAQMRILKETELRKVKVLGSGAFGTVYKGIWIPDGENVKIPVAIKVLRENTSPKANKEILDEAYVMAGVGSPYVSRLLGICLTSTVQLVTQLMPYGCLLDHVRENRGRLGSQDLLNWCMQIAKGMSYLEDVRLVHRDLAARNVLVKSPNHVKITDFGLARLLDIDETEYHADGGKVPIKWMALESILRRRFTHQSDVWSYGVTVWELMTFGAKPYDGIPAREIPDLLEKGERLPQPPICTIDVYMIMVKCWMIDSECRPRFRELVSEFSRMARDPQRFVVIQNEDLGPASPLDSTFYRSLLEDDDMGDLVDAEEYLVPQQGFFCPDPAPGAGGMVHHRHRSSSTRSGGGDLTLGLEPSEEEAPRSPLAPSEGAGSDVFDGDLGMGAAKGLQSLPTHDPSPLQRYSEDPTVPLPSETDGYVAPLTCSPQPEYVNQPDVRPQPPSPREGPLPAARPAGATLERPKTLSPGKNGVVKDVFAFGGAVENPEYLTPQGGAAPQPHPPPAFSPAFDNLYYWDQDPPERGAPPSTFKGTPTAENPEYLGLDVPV
Method: Compounds of the present invention were tested for EGFR, ErbB-2, and ErbB4 protein tyrosine kinase Inhibitory activity in substrate phosphorylation assays using enzymes purified from a baculovirus expression system. Reagent production was conducted essentially as described (Brignola, P. S., et al, (2002) J. Biol. Chem. v. 277 2, 1576-1585).
as §1, §2
Reactions were allowed to proceed for 90 minutes and were then terminated by the addition of 20 μL 100 mM EDTA to each well. 40 μL/well of HTRF mix were then added to the assay plates for the detection of phosphorylated substrate. Final assay concentrations were: 100 mM HEPES (pH7.5), 0.1 mg/mL BSA, 15 nM streptavidin-labeled allophycocyanin (PerkinElmer), and 1 nM europium-labeled anti-phosphotyrosine antibody (PerkinElmer). Assay plates were left unsealed and were counted in a Wallac Multilabel Counter 1420 (PerkinElmer).
Compounds under analysis were dissolved in Me2SO to 1.0 mM and serially diluted 1 to 3 with Me2SO through twelve dilutions. 1 μL of each concentration was transferred to the corresponding well of an assay plate. This creates a final compound concentration range from 0.00027 to 47.6 μM.
The data for dose responses were plotted as % Inhibition calculated with the data reduction formula 100*(1−(U1−C2)/(C1−C2)) versus concentration of compound where U is the unknown value, C1 is the average control value obtained for 4.76% DMSO, and C2 is the average control value obtained for 0.035 M EDTA. Data were fitted with a curve described by: y=((Vmax*x)/(K+x))+Y2 where Vmax is the upper asymptote, Y2 is the Y intercept, and K is the IC50. The results for reach compound were recorded as pIC50s, calculated as follows: pIC50=−Log10(K)

T1 sequence (P00533 669-1210 limits assumed): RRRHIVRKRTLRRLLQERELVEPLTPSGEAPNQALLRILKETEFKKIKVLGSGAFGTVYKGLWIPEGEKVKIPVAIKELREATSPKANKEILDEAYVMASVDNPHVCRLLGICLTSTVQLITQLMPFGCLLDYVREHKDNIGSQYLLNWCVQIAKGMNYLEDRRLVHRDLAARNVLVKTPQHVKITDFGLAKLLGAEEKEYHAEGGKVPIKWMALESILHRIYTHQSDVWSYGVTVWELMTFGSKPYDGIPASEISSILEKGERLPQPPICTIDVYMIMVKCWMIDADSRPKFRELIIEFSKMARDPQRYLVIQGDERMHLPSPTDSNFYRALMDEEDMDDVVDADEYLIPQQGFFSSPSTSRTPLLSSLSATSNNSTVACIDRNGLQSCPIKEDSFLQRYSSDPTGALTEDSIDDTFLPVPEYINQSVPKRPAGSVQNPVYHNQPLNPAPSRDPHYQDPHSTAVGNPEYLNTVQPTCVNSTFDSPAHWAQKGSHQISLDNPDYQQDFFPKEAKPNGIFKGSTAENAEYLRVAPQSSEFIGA

| Compound | IC50 (EGFR) [nM] | IC50 (ErbB2) [nM] |
| --- | --- | --- |
| Fc1cccc(COc2ccc(Nc3ncncc3C#Cc3cccc(CNCCN4CCOCC4)n3)cc2Cl)c1 [Example 76, N-{3-Chloro-4-[(3-fluorobenzyl)oxy]phenyl}-5-{[6-({[2-(4-morpholinyl)ethyl]amino}methyl)-2-pyridinyl]ethynyl}-4-pyrimidinamine] | 100 to 1000 | 100 to 1000 |
| CS(=O)(=O)CCNc1cccc(C#Cc2cncnc2Nc2ccc(OCc3cccc(F)c3)c(Cl)c2)n1 [Example 72, N-{3-Chloro-4-[(3-fluorobenzyl)oxy]phenyl}-5-[(6-{[2-(methylsulfonyl)ethyl]amino}-2-pyridinyl)ethynyl]-4-pyrimidinamine] | > 1000 | > 1000 |
| COC(=O)CCC(=O)Nc1cccc(C#Cc2cncnc2Nc2ccc(OCc3cccc(F)c3)c(Cl)c2)n1 [Example 71, Methyl 4-({6-[(4-{3-chloro-4-[(3-fluorobenzyl)oxy]anilino}-5-pyrimidinyl)ethynyl]-2-pyridinyl}amino)-4-oxobutanoate] | 100 to 1000 | 100 to 1000 |
| C(=C\c1cncnc1Nc1ccc2sc(Cc3ccccc3)nc2c1)/c1ccsc1 [Example 5, 2-Benzyl-N-{5-[(E)-2-thien-3-ylethenyl]pyrimidin-4-yl}-1,3-benzothiazol-5-amine] | > 1000 | > 1000 |
| CN(C)CCCC(=O)Nc1cccc(C#Cc2cncnc2Nc2ccc(OCc3cccc(F)c3)c(Cl)c2)n1 [Example 70, N-{6-[(4-{3-Chloro-4-[(3-fluorobenzyl)oxy]anilino}-5-pyrimidinyl)ethynyl]-2-pyridinyl}-4-(dimethylamino)butanamide] | < 100 | < 100 |
| Nc1nccc(C#Cc2cncnc2Nc2ccc(OCc3cccc(F)c3)c(Cl)c2)n1 [Example 99, 4-{[4-({3-Chloro-4-[(3-fluorobenzyl)oxy]phenyl}amino)pyrimidin-5-yl]ethynyl}pyrimidin-2-amine] |  | < 100 |
| COCc1cccc(C#Cc2cncnc2Nc2ccc(OCc3cccc(F)c3)c(Cl)c2)n1 [Example 80, N-{3-Chloro-4-[(3-fluorobenzyl)oxy]phenyl}-5-{[6-(methoxymethyl)-2-pyridinyl]ethynyl}-4-pyrimidinamine] | > 1000 | > 1000 |
| Nc1cccc(C#Cc2cncnc2Nc2ccc(OCc3cccc(F)c3)c(Cl)c2)n1 [Example 67, 5-[(6-Amino-2-pyridinyl)ethynyl]-N-(3-chloro-4-{[(3-fluorophenyl)methyl]oxy}phenyl)4-pyrimidinamine] | < 100 | < 100 |
| N=C(N)Nc1cccc(C#Cc2cncnc2Nc2ccc(OCc3cccc(F)c3)c(Cl)c2)c1 [Example 49, N-(3-{[4-({3-Chloro-4-[(3-fluorobenzyl)oxy]phenyl}amino)pyrimidin-5-yl]ethynyl}phenyl)guanidine] | 100 to 1000 | < 100 |
| C(=C\c1cncnc1Nc1ccc2c(cnn2Cc2ccccc2)c1)/c1cn[nH]c1 [Example 9, 1-Benzyl-N-{5-[(E)-2-(1H-pyrazol-4-yl)ethenyl]pyrimidin-4-yl}-1H-indazol-5-amine] | 100 to 1000 | 100 to 1000 |
| Fc1cccc(COc2ccc(Nc3ncncc3/C=C/c3ccncc3)cc2Cl)c1 [Example 14, N-{3-Chloro-4-[(3-fluorobenzyl)oxy]phenyl}-5-[(E)-2-pyridin-4-ylethenyl]pyrimidin-4-amine] | < 100 | < 100 |
| O=C(Nc1cccc(C#Cc2cncnc2Nc2ccc(OCc3cccc(F)c3)c(Cl)c2)n1)C(F)(F)F [Example 100, N-(6-{[4-({3-Chloro-4-[(3-fluorobenzyl)oxy]phenyl}amino)pyrimidin-5-yl]ethynyl}pyridin-2-yl)-2,2,2-trifluoroacetamide] | < 100 | < 100 |
| CC(=O)Nc1cccc(/C=C/c2cncnc2Nc2ccc(OCc3cccc(F)c3)c(Cl)c2)c1 [Example 20, N-(3-{(E)-2-[4-({3-Chloro-4-[(3-fluorobenzyl)oxy]phenyl}amino)pyrimidin-5-yl]ethenyl}phenyl)acetamide] | < 100 | < 100 |

Next, values leading:

| IC50 (EGFR) [nM] | IC50 (ErbB2) [nM] | Compound |
| --- | --- | --- |
| < 100 | < 100 | CS(=O)(=O)CCNC(=O)NCc1cccc(C#Cc2cncnc2Nc2ccc(OCc3cccc(F)c3)c(Cl)c2)n1 [Example 88, N-({6-[(4-{3-Chloro-4-[(3-fluorobenzyl)oxy]anilino}-5-pyrimidinyl)ethynyl]-2-pyridinyl}methyl)-N′-[2-(methylsulfonyl)ethyl]urea] |
| < 100 | < 100 | Fc1cccc(COc2ccc(Nc3ncncc3C#Cc3cccc(CNCCCn4ccnc4)n3)cc2Cl)c1 [Example 78, N-{3-Chloro-4-[(3-fluorobenzyl)oxy]phenyl}-5-{[6-({[3-(1H-imidazol-1-yl)propyl]amino}methyl)-2-pyridinyl]ethynyl}-4-pyrimidinamine] |
| < 100 | < 100 | Fc1cccc(COc2ccc(Nc3ncncc3/C=C/c3ccccc3)cc2Cl)c1 [Example 22, N-{3-Chloro-4-[(3-fluorobenzyl)oxy]phenyl}-5-[(E)-2-phenylethenyl]pyrimidin-4-amine] |
| < 100 | < 100 | Fc1cccc(COc2ccc(Nc3ncncc3C#Cc3cccc(CN4CCCCC4)n3)cc2Cl)c1 [Example 92, N-{3-Chloro-4-[(3-fluorobenzyl)oxy]phenyl}-5-([6-(1-piperidinylmethyl)-2-pyridinyl]ethynyl}-4-pyrimidinamine] |
| < 100 | < 100 | Fc1cccc(COc2ccc(Nc3ncncc3/C=C/c3ccsc3)cc2Cl)c1 [Example 17, N-{3-Chloro-4-[(3-fluorobenzyl)oxy]phenyl}-5-[(E)-2-thien-3-yletheny]pyrimidin-4-amine] |
| < 100 | < 100 | COc1ccc(/C=C/c2cncnc2Nc2ccc(OCc3cccc(F)c3)c(Cl)c2)cc1OC [Example 21, N-{3-Chloro-4-[(3-fluorobenzyl)oxy]phenyl}-5-[(E)-2-(3,4-dimethoxyphenyl)ethenyl]pyrimidin-4-amine] |
| < 100 | < 100 | O=C(NCCN1CCOCC1)NCc1cccc(C#Cc2cncnc2Nc2ccc(OCc3cccc(F)c3)c(Cl)c2)n1 [Example 89, N-({6-[(4-{3-Chloro-4-[(3-fluorobenzyl)oxy]anilino}-5-pyrimidinyl)ethynyl]-2-pyridinyl}methyl)-N′-[2-(4-morpholinyl)ethyl]urea] |
